Each structure is given as a SMILES string.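 1) Cells in 96-well plates. 2) Compound, 48 h, 5 concentrations. 3) Linear interpolation between surrounding doses. 4) Unreached endpoint = highest concentration. GI50 marks 50% less growth.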 The source made the active and inactive calls. Cut-off read from the data, not from the text of the source: active = GI50 up to about 1.1 µM and inactive = higher.

Test systems include IGROV-1; NCI-H226; NCI-H522; LOX IMVI; M14; HCT-116; SK-MEL-2; SN12C; OVCAR-8; CCRF-CEM; ACHN; Hs-578T; SW-620; SF-295; SK-MEL-5; PC-3; SNB-75; RXF 393; CAKI-1; A498.
Test in all cases: NCI-60 cell line screen, 48 h

In the case of `Clc1ccc2nc3c(c(-c4ccccc4)nn3-c3ccccc3)c(-c3ccccc3)c2c1`, the GI50 with IGROV-1, with NCI-H226, in the test with NCI-H522, in the test on LOX IMVI, in the test on M14 and with HCT-116 was > 100 µM (inactive) throughout. The GI50 in the test on SK-MEL-2, in the test with SN12C, with OVCAR-8, with CCRF-CEM, in the test with ACHN and with Hs-578T was > 100 µM (inactive) each time. Besides, the GI50 in the test with SW-620, with SF-295, in the test on SK-MEL-5, with PC-3 and in the test on SNB-75 was > 100 µM (inactive) each time.
As to `[N-]=[N+]=Nc1ccc(NCCCCCC(=O)ON2C(=O)CCC2=O)c([N+](=O)[O-])c1`, the GI50 in the test on IGROV-1 is > 100 µM (inactive); with NCI-H226 it was > 100 µM (inactive); in the test with NCI-H522 it was 39.3 µM (inactive); with LOX IMVI it was 48.8 µM (inactive); with M14, 58.3 µM (inactive); with HCT-116, 39.6 µM (inactive). Moreover, the GI50 in the test on RXF 393 was 40.8 µM (inactive); in the test on SK-MEL-2 it was 42.4 µM (inactive); in the test with SN12C it was 27.4 µM (inactive); in the test with OVCAR-8, 60.3 µM (inactive); in the test on ACHN, 49.1 µM (inactive); in the test with Hs-578T it was < 0.01 µM (active). In addition, the GI50 was 60.1 µM (inactive) in the test on SW-620; > 100 µM (inactive) with SF-295; 41.1 µM (inactive) with SK-MEL-5; 28.5 µM (inactive) with PC-3; 72.9 µM (inactive) in the test on SNB-75; 34.4 µM (inactive) in the test with CAKI-1.
Consider `COc1ccc2c(c1)C(=O)Cc1ccccc1CC2`, for which the GI50 in the test with IGROV-1, in the test on NCI-H226, in the test with NCI-H522, with LOX IMVI, in the test on M14 and in the test on HCT-116 was > 100 µM (inactive) throughout. The GI50 with RXF 393 is > 100 µM (inactive); in the test on SK-MEL-2, 81.5 µM (inactive); in the test on SN12C, > 100 µM (inactive); in the test with OVCAR-8 it was > 100 µM (inactive); with CCRF-CEM it was > 100 µM (inactive); in the test with ACHN, > 100 µM (inactive). Further, the GI50 in the test on SW-620 is > 100 µM (inactive); in the test with SF-295, > 100 µM (inactive); in the test with A498, > 100 µM (inactive); in the test on SK-MEL-5 it was > 100 µM (inactive); in the test on SNB-75, 27.7 µM (inactive); with CAKI-1, > 100 µM (inactive).
As to `Clc1ccc(SC(/C=C/NNC2=NN=C(c3ccccc3)C(c3ccccc3)N2)c2ccccc2)cc1` (configuration not stated), the GI50 in the test with IGROV-1 is 49.3 µM (inactive); with NCI-H226 it was 13.4 µM (inactive); in the test with NCI-H522, 17.9 µM (inactive); in the test on LOX IMVI it was 21.9 µM (inactive); in the test on M14, 18.5 µM (inactive); in the test with HCT-116 it was 16.1 µM (inactive). Also, the GI50 with RXF 393 is 6.28 µM (inactive); with SK-MEL-2 it was 18.7 µM (inactive); in the test with SN12C, 29.4 µM (inactive); in the test with OVCAR-8, 28.2 µM (inactive); in the test with CCRF-CEM it was 17.1 µM (inactive); in the test on ACHN, 21 µM (inactive). Also, the GI50 with SW-620 was 33.5 µM (inactive); with SF-295, 19.3 µM (inactive); in the test with A498, 28.2 µM (inactive); with SK-MEL-5 it was 14.7 µM (inactive); in the test on SNB-75 it was 15.2 µM (inactive); in the test on CAKI-1, 12.3 µM (inactive).
Regarding `CC(C)(C)OC(=O)N1C(OP(=O)(Oc2ccccc2)Oc2ccccc2)=CSc2ccccc21`, the GI50 in the test on IGROV-1 was 38.1 µM (inactive); in the test with NCI-H226 it was 80.2 µM (inactive); in the test with NCI-H522, 27.1 µM (inactive); in the test with LOX IMVI it was 47.2 µM (inactive); in the test on M14 it was 25.8 µM (inactive); in the test with HCT-116, 30.2 µM (inactive). Also, the GI50 in the test with RXF 393 is 41.8 µM (inactive); in the test with SK-MEL-2, 19.1 µM (inactive); in the test on SN12C it was 56.6 µM (inactive); in the test with OVCAR-8, 59 µM (inactive); in the test on ACHN it was 27.5 µM (inactive); with Hs-578T, 45.8 µM (inactive). In addition, the GI50 in the test with SW-620 is 41.2 µM (inactive); in the test with SF-295 it was 29.3 µM (inactive); in the test with SK-MEL-5, 28.2 µM (inactive); with PC-3, 47.8 µM (inactive); with SNB-75 it was 31 µM (inactive); in the test on CAKI-1 it was 18.8 µM (inactive).
For `CC1=C(C)CC2(SC1)C(=O)c1ccccc1C2=O`, the GI50 in the test on IGROV-1, with NCI-H226, with NCI-H522, with LOX IMVI, with M14 and in the test with HCT-116 was > 100 µM (inactive) each time. In addition, the GI50 in the test on RXF 393 was > 100 µM (inactive); in the test with SK-MEL-2 it was > 100 µM (inactive); in the test on SN12C, > 100 µM (inactive); with OVCAR-8, > 100 µM (inactive); with CCRF-CEM, 93.8 µM (inactive); in the test with ACHN it was > 100 µM (inactive). Besides, the GI50 with SW-620 was > 100 µM (inactive); with SF-295 it was > 100 µM (inactive); in the test on A498 it was > 100 µM (inactive); in the test on SK-MEL-5 it was > 100 µM (inactive); in the test with SNB-75, > 100 µM (inactive); in the test with CAKI-1, 65.9 µM (inactive).
With `O=C(NCCCCN(CCCNC(=O)C(F)(F)F)Cc1ccc2ccccc2c1)C(F)(F)F`, the GI50 with IGROV-1 is 17.2 µM (inactive); in the test on NCI-H226 it was 17.3 µM (inactive); in the test with NCI-H522, 18.2 µM (inactive); with LOX IMVI it was 14.1 µM (inactive); with M14, 16.7 µM (inactive); with HCT-116, 16 µM (inactive). Also, the GI50 was 17.5 µM (inactive) with RXF 393; 16.1 µM (inactive) in the test on SN12C; 16.9 µM (inactive) with OVCAR-8; > 10 µM (inactive) in the test with CCRF-CEM; 24.3 µM (inactive) with ACHN; 17.7 µM (inactive) in the test with Hs-578T. In addition, the GI50 in the test with SW-620 was 15.3 µM (inactive); with SF-295, 16.7 µM (inactive); in the test with A498 it was 20.3 µM (inactive); in the test on SK-MEL-5, 19.2 µM (inactive); in the test with SNB-75 it was 11.5 µM (inactive); with CAKI-1, 14.3 µM (inactive).
Consider `COc1cc(-c2cc(CCC(=O)Nc3ccccc3[N+](=O)[O-])n(-c3ccc([N+](=O)[O-])cc3[N+](=O)[O-])n2)ccc1O`, for which the GI50 in the test with IGROV-1, in the test with NCI-H226, in the test on NCI-H522, in the test with LOX IMVI, in the test on M14 and in the test on HCT-116 was > 10 µM (inactive) in each case. Further, the GI50 is > 10 µM (inactive) with RXF 393; > 10 µM (inactive) in the test on SK-MEL-2; > 10 µM (inactive) in the test on SN12C; > 10 µM (inactive) with OVCAR-8; > 10 µM (inactive) in the test on CCRF-CEM; 70.6 µM (inactive) in the test with ACHN. The GI50 in the test on SW-620 was > 10 µM (inactive); in the test with SF-295, > 10 µM (inactive); in the test on A498 it was > 10 µM (inactive); with SK-MEL-5, > 10 µM (inactive); in the test on SNB-75, 89.9 µM (inactive); with CAKI-1 it was > 10 µM (inactive).
With `O=C(N/N=C/c1ccc(Br)cc1)N/N=C/c1ccc(Br)cc1`, the GI50 in the test with IGROV-1 was 4.72 µM (inactive); in the test on NCI-H226 it was 7.43 µM (inactive); in the test on LOX IMVI, 3.98 µM (inactive); in the test on M14, 11.1 µM (inactive); in the test with HCT-116, 3.53 µM (inactive); in the test with RXF 393, 13.3 µM (inactive). The GI50 is 75.5 µM (inactive) in the test with SK-MEL-2; 3.52 µM (inactive) in the test with SN12C; 5.08 µM (inactive) with OVCAR-8; 3.24 µM (inactive) in the test with CCRF-CEM; 4.94 µM (inactive) with ACHN; 3.78 µM (inactive) in the test with Hs-578T. In addition, the GI50 in the test with SW-620 is 7.13 µM (inactive); in the test with SF-295, 6.19 µM (inactive); in the test on SK-MEL-5, 14.1 µM (inactive); with PC-3 it was 17.3 µM (inactive); in the test with CAKI-1, 4.66 µM (inactive).
Take `COc1cccc(/C=N/NC(N)=O)c1O`: the GI50 in the test with IGROV-1, with NCI-H226, in the test on NCI-H522, with LOX IMVI, in the test with M14 and in the test on HCT-116 was > 100 µM (inactive) in each case. Moreover, the GI50 in the test with RXF 393, with SK-MEL-2, in the test on SN12C, with OVCAR-8, with CCRF-CEM and with ACHN was > 100 µM (inactive) each time. The GI50 in the test on SW-620, in the test with SF-295, in the test on A498, in the test with SK-MEL-5, in the test on SNB-75 and in the test on CAKI-1 was > 100 µM (inactive) throughout.
In the case of `CC(C)(C)OC(=O)C1CC[C@@H](CC(=O)Oc2ccc([N+](=O)[O-])cc2)N1` (some centres not stated), the GI50 in the test with IGROV-1, in the test on NCI-H226, with NCI-H522, with LOX IMVI, in the test on M14 and in the test on HCT-116 was > 100 µM (inactive) each time. The GI50 in the test on RXF 393, in the test on SK-MEL-2, in the test with SN12C, in the test on OVCAR-8, in the test on CCRF-CEM and in the test on ACHN was > 100 µM (inactive) in each case. Besides, the GI50 in the test on SW-620, in the test with SF-295, in the test on A498, with SK-MEL-5, with PC-3 and with SNB-75 was > 100 µM (inactive) throughout. Also, the GI50 in the test with CAKI-1 is > 100 µM (inactive).

The values are drawn from ChEMBL document CHEMBL1201862, “PubChem BioAssay data set” (2004).
